Measured values published in patent publication US11274100B2, “EP300/CREBBP inhibitor” (Daiichi Sankyo Company, Limited, priority 2017, dated 2022).

Columns and labels:
LK2 cells = assay: Cell growth inhibitory activity, LK2 cells (Test Example 3); format: cell-based; conditions: Homo sapiens, LK-2, 72 h, cultured for 3 days, CellTiter-Glo
Method: (§1) [Test Example 3] Evaluation of Cell Growth Inhibitory Activity
(§2) As a culture medium for each cell, a 10% FBS supplemented RPMI 1640 medium (for LK2 cells and TE-8 cells derived from human esophageal cancer) was used. LK2 cells were purchased from Human Science Research Resources Bank, and TE-8 cells were purchased from Riken Cell Bank. The compound of each of Examples 1 to 108b was prepared by dilution with Freedom EVO 150 (Tecan Trading AG) (4-fold diluted, 10 stages, 10 mM to 38 nM). The resultant was added to respective wells of a 384-well plate in an amount of 40 nL/well using Echo 555 (Labcyte Inc.). The LK2 or TE-8 cells were seeded in the plate at 400 cells/40 μL/well (day 0), and were cultured for 3 days. On the day of addition of the compound (day 0) and 3 days after the addition of the compound (day 3), an ATP measurement reagent of CellTiter-Glo (registered trademark) 2.0 Assay (Promega Corporation, #G9242) was added to each well in an amount of 10 μL/well, and the amount of luminescence of each well was measured using EnVision. Based on the amount of luminescence (C0) on the day of the addition of the compound, and the amounts of luminescence of a compound non-addition group (C3) and a compound addition group (T3) obtained after the 3-day culture of the compound, a cell survival rate was calculated in accordance with the following expression: Cell survival rate (%)=(T3−C0)/(C3−C0)×100
(§3) A concentration (GI50 value) of each compound at which the growth of the TE-8 or LK-2 cells was inhibited by 50% was calculated by semilogarithmically plotting the cell survival rate at each concentration and the compound concentration.

TE-8 cells = assay: Cell growth inhibitory activity, TE-8 cells (Test Example 3); format: cell-based; conditions: Homo sapiens, 72 h, cultured for 3 days, CellTiter-Glo
Method: as §1, §2, §3

CREBBP = CREBBP (Homo sapiens, UniProt Q92793); assay: Histone acetyltransferase inhibitory activity against CREBBP (Test Example 1); format: biochemical; conditions: 125 ng/mL CREBBP, 2 μM Acetyl-CoA, 100 nM Histone H4(1-25)-GSGSK (Biotin), 28° C. for 1 hour
Outline: (§4)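 Enzyme (50 ng/mL EP300 or 125 ng/mL CREBBP) incubated 1 h at 28° C with 2 μM acetyl-CoA, 100 nM biotinylated histone H4(1-25) peptide and 10 to 0.0006 μM compound in pH 8.0 Tris buffer with 330 nM trichostatin A, 1% DMSO. Reaction stopped with Lys-CoA; acetylation read by TR-FRET (Eu-anti pan-Ac/Sta-ULight) after overnight room-temperature incubation.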

H3K27Ac = assay: Intracellular H3K27Ac inhibitory activity in LK2 cells (Test Example 2); format: cell-based; conditions: Homo sapiens, LK-2, cultured with compound for 3 hours, read-out: Test Example 2 H3K27Ac Inhibition (LK2) IC50
Outline: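 Human squamous lung cancer LK2 cells (40000/well) cultured overnight at 37 °C, 5% CO2 before treatment. After paraformaldehyde fixation, peroxide quench and blocking, H3K27 acetylation detected with anti-acetyl-H3K27 rabbit mAb (4 °C overnight) and HRP secondary; chemiluminescent read-out.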

EP300 = EP300 (Homo sapiens, UniProt Q09472); assay: Histone acetyltransferase inhibitory activity against EP300 (Test Example 1); format: biochemical; conditions: 50 ng/mL EP300, 2 μM Acetyl-CoA, 100 nM Histone H4(1-25)-GSGSK (Biotin), 28° C. for 1 hour
Outline: as §4

Sequence of EP300 (Q09472 whole entry): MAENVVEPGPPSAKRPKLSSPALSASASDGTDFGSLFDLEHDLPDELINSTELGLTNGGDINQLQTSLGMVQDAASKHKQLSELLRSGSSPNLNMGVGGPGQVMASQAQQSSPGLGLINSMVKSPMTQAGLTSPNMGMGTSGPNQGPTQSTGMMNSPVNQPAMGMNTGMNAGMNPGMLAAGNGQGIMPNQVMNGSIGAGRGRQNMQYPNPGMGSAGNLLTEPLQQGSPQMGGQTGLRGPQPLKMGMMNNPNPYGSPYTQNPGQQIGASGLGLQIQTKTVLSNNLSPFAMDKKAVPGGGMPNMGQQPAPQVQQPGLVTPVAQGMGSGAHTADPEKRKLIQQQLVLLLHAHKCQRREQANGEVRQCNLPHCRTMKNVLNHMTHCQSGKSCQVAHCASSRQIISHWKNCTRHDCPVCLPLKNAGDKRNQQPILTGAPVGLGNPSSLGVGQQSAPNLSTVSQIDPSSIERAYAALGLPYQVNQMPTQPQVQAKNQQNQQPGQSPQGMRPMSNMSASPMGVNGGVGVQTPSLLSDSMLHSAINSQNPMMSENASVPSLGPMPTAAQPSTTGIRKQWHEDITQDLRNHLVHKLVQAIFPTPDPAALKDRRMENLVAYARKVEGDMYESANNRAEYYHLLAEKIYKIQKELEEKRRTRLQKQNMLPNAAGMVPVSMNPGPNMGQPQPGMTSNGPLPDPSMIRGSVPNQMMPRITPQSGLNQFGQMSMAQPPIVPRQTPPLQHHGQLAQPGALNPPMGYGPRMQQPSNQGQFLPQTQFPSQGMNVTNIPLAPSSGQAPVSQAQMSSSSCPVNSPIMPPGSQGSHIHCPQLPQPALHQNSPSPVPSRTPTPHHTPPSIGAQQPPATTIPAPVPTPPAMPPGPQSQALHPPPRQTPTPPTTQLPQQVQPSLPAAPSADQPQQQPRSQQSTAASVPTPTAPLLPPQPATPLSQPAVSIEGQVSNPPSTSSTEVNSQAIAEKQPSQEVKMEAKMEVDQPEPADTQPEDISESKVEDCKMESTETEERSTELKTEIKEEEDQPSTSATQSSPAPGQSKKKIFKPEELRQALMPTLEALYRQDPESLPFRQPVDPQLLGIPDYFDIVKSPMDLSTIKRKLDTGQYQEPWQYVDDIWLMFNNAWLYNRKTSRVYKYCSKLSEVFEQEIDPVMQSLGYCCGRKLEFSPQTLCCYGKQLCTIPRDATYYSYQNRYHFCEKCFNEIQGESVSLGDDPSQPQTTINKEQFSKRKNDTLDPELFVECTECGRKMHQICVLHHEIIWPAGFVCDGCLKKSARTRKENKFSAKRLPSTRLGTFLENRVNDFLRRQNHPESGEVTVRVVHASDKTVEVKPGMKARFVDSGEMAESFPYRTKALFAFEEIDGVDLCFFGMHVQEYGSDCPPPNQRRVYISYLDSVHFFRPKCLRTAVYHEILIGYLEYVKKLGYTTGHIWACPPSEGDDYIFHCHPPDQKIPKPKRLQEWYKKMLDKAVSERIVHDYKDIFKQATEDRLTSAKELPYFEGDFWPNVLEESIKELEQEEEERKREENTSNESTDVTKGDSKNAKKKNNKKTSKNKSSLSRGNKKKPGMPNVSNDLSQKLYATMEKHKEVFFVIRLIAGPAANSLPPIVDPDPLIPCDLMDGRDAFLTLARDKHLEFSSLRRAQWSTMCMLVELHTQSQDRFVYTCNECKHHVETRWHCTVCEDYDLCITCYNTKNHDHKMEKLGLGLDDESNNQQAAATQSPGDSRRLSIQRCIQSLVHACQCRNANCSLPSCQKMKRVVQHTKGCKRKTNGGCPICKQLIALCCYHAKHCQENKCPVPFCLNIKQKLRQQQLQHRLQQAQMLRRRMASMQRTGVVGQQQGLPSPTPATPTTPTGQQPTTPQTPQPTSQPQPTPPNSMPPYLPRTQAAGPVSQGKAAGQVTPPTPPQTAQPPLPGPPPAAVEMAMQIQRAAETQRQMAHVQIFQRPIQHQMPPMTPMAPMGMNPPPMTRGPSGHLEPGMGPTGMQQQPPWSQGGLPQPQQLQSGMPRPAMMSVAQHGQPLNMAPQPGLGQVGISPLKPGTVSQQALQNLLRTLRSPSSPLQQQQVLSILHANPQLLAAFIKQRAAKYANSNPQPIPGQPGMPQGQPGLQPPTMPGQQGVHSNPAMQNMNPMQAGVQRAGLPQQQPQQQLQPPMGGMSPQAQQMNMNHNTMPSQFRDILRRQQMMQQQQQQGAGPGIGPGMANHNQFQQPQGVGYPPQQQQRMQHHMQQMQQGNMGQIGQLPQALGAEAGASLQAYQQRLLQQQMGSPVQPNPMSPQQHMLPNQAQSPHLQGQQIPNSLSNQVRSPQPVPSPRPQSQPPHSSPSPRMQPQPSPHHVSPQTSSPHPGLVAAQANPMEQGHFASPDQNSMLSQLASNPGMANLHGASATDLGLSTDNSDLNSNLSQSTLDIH
Sequence of CREBBP (Q92793 whole entry): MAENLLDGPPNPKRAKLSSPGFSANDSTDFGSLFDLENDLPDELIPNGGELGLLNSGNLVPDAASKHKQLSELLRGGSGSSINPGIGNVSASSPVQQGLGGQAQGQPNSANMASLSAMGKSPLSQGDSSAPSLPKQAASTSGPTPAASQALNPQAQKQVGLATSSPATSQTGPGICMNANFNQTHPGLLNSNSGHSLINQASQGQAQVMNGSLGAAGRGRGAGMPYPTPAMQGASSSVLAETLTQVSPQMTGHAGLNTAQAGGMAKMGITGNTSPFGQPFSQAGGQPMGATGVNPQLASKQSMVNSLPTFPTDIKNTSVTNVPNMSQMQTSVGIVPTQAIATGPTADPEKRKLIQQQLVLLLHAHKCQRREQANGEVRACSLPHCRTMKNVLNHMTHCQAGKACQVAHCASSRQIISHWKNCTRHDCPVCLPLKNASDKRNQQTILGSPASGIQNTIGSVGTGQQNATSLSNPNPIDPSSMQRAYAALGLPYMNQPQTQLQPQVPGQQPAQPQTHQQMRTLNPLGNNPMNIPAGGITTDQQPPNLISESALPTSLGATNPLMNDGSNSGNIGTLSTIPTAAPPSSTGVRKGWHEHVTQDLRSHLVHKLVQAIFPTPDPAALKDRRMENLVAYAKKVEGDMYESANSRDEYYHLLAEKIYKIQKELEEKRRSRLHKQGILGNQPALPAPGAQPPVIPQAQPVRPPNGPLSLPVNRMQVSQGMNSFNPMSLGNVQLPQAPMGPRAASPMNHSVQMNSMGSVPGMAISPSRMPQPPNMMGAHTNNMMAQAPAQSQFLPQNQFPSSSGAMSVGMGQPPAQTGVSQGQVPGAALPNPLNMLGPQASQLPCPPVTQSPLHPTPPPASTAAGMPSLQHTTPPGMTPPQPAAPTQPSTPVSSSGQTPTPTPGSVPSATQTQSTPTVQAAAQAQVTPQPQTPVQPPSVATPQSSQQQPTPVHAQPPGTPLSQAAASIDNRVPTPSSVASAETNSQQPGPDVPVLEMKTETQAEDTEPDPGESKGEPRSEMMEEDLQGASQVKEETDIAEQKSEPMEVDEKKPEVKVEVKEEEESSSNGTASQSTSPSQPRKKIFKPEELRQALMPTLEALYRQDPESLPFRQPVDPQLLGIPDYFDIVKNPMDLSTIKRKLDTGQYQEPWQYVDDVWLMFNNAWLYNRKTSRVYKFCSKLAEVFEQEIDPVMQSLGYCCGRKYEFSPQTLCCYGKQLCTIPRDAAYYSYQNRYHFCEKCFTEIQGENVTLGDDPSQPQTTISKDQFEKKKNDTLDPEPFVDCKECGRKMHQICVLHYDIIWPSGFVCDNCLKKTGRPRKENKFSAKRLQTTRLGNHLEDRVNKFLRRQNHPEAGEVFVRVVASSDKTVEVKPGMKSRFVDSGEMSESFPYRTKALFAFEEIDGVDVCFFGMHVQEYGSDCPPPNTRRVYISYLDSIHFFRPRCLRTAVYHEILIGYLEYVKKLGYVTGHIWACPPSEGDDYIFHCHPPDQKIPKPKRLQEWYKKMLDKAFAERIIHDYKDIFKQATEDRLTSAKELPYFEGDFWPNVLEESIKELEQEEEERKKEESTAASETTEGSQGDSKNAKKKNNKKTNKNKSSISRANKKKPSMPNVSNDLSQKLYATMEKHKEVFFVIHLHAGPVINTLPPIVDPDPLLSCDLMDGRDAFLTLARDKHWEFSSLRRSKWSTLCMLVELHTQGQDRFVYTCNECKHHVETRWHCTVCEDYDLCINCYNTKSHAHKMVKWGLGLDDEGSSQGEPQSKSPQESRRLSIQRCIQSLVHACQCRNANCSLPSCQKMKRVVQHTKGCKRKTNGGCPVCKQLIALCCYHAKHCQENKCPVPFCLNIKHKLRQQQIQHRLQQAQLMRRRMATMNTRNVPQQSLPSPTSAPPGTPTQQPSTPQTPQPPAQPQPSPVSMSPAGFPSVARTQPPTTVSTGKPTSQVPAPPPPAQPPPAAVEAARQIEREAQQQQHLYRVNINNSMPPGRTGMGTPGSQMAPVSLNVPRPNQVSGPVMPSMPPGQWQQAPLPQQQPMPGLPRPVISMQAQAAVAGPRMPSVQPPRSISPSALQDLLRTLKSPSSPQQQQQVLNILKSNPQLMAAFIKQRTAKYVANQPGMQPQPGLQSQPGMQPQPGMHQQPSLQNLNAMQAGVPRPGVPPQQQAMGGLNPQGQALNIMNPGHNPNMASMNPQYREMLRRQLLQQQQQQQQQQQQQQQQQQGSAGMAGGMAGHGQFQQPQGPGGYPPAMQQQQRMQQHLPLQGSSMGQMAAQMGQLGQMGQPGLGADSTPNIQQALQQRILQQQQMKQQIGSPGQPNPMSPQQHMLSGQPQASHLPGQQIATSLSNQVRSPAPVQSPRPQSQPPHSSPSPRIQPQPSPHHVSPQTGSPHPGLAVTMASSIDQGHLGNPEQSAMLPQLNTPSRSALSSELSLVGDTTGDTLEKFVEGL

SMILES | IC50 (CREBBP) | IC50 (H3K27Ac) | IC50 (EP300) | GI50 (LK2 cells) | GI50 (TE-8 cells)
COc1ccc(C2(C(=O)N(C)[C@H](C)C(=O)Nc3ccc4[nH]ncc4n3)CCCCC2)cc1 [Example 46] | 0.045 µM | 0.014 µM | 0.024 µM | 0.147 µM | 0.145 µM
COc1ccc(C(C)(C)C(=O)N2C[C@H](F)C[C@@H]2C(=O)Nc2ccc3[nH]ncc3n2)cc1 [Example 47] | 0.059 µM | 0.077 µM | 0.013 µM | 0.585 µM | 1.14 µM
O=C(Nc1ccc2[nH]ncc2n1)[C@H]1C[C@@H](F)CN1C(=O)C1(c2ccc(O)cc2)CCCCC1 [Example 82, (4R)-4-Fluoro-1-{[1-(4-hydroxyphenyl)cyclohexyl]carbonyl}-N-1H-pyrazolo[4,3-b]pyridin-5-yl-D-prolinamide] | 0.021 µM | 0.013 µM | 0.012 µM | 0.0751 µM | 0.0893 µM
COc1ccc(C2(C(=O)N3CS(=O)(=O)C[C@@H]3C(=O)Nc3ccc4[nH]ccc4n3)CCCC2)cc1 [Example 65, (4S)-3-{[1-(4-Methoxyphenyl)cyclopentyl]carbonyl}-N-(1H-pyrrolo[3,2-b]pyridin-5-yl)-1,3-thiazolidine-4-carboxamide 1,1-dioxide] | 0.037 µM | 0.009 µM | 0.018 µM | 0.0792 µM | 0.151 µM
[2H]C([2H])([2H])N(C(=O)C1(c2ccc(OC)cc2)CCC(F)(F)CC1)[C@H](CO)C(=O)Nc1ccc2[nH]ccc2n1 [Example 77, 4,4-Difluoro-N-[(2R)-3-hydroxy-1-oxo-1-(1H-pyrrolo[3,2-b]pyridin-5-ylamino)propan-2-yl]-1-(4-methoxyphenyl)-N—(^2H3)methylcyclohexanecarboxamide] | 0.053 µM | 0.015 µM | 0.041 µM | 0.102 µM | 0.199 µM
COc1ccc(C2(C(=O)N(C)[C@H](CCO)C(=O)Nc3ccc4[nH]ncc4n3)CCC(F)(F)CC2)cc1 [Example 69, 4,4-Difluoro-N-[(2R)-4-hydroxy-1-oxo-1-(1H-pyrazolo[4,3-b]pyridin-5-ylamino)butan-2-yl]-1-(4-methoxyphenyl)-N-methylcyclohexanecarboxamide] | 0.239 µM | 0.402 µM | 0.157 µM | 3.12 µM | 4.19 µM
COC(=O)c1ccc(C2(C(=O)N3C[C@H](F)C[C@@H]3C(=O)Nc3ccc4[nH]ncc4n3)CCCCC2)cc1 [Example 81b, methyl 4-(1-{[(2R,4R)-4-Fluoro-2-(1H-pyrazolo[4,3-b]pyridin-5-ylcarbamoyl)pyrrolidin-1-yl]carbonyl}cyclohexyl)benzoate] | 0.064 µM | 0.016 µM | 0.041 µM | 0.231 µM | 0.258 µM
COc1ccc(C2(C(=O)N3CS(=O)(=O)C[C@@H]3C(=O)Nc3ccc4[nH]ncc4n3)CCC(F)(F)CC2)cc1 [Example 68, (4S)-3-{[4,4-Difluoro-1-(4-methoxyphenyl)cyclohexyl]carbonyl}-N-(1H-pyrazolo[4,3-b]pyridin-5-yl)-1,3-thiazolidine-4-carboxamide 1,1-dioxide] | 0.122 µM | 0.042 µM | 0.049 µM | 0.51 µM | 0.819 µM
COc1ccc(C2(C(=O)N3CS(=O)(=O)C[C@@H]3C(=O)Nc3ccc4[nH]c(C)cc4n3)CCC(F)(F)CC2)cc1 [Example 79, (4S)-3-{[4,4-Difluoro-1-(4-methoxyphenyl)cyclohexyl]carbonyl}-N-(2-methyl-1H-pyrrolo[3,2-b]pyridin-5-yl)-1,3-thiazolidine-4-carboxamide 1,1-dioxide] | 0.193 µM | 0.268 µM | 0.181 µM | 1.39 µM | 1.67 µM
COCc1cc2nc(NC(=O)[C@H]3C[C@@H](F)CN3C(=O)C3(c4ccc(OC(F)F)cc4)CCC(F)(F)CC3)ccc2[nH]1 [Example 105, (4R)-1-({1-[4-(Difluoromethoxy)phenyl]-4,4-difluorocyclohexyl}carbonyl)-4-fluoro-N-[2-(methoxymethyl)-1H-pyrrolo[3,2-b]pyridin-5-yl]-D-prolinamide] | 0.078 µM | 0.192 µM | 0.05 µM | 0.753 µM | 0.989 µM
COc1ccc(C2(C(=O)N3C[C@H](F)C[C@@H]3C(=O)Nc3ccc4[nH]c(C)cc4n3)CCC(F)(F)CC2)cc1 [Example 97, (4R)-1-{[4,4-Difluoro-1-(4-methoxyphenyl)cyclohexyl]carbonyl}-4-fluoro-N-(2-methyl-1H-pyrrolo[3,2-b]pyridin-5-yl)-D-prolinamide] | 0.123 µM | 0.218 µM | 0.07 µM | 0.854 µM | 1.18 µM

The next lines start with results.

IC50 (CREBBP) | IC50 (H3K27Ac) | IC50 (EP300) | SMILES | GI50 (LK2 cells) | GI50 (TE-8 cells)
0.034 µM | 0.025 µM | 0.014 µM | O=C(Nc1ccc2[nH]ncc2n1)[C@H]1C[C@@H](F)CN1C(=O)C1(c2ccc(OCF)cc2)CCC(F)(F)CC1 [Example 48] | 0.105 µM | 0.135 µM
0.202 µM | 0.062 µM | 0.076 µM | CC(C)(O)c1ccc(C2(C(=O)N3C[C@H](F)C[C@@H]3C(=O)Nc3ccc4[nH]ncc4n3)CCC(F)(F)CC2)cc1 [Example 98, (4R)-1-({4,4-Difluoro-1-[4-(2-hydroxypropan-2-yl)phenyl]cyclohexyl}carbonyl)-4-fluoro-N-1H-pyrazolo[4,3-b]pyridin-5-yl-D-prolinamide] | 0.267 µM | 0.331 µM
0.064 µM | 0.02 µM | 0.024 µM | COc1ccc(C2(C(=O)N3C[C@H](F)C[C@@H]3C(=O)Nc3ccc4[nH]ncc4n3)CC(F)(F)C2)cc1 [Example 56, (4R)-1-{[3,3-Difluoro-1-(4-methoxyphenyl)cyclobutyl]carbonyl}-4-fluoro-N-1H-pyrazolo[4,3-b]pyridin-5-yl-D-prolinamide] | 0.0988 µM | 0.0883 µM
0.305 µM | 0.123 µM | 0.109 µM | O=C(Nc1ccc2[nH]ncc2n1)[C@H]1C[C@@H](F)CN1C(=O)C1(c2ccc(-c3ccccc3)c(F)c2)CCC(F)(F)CC1 [Example 94] | 0.625 µM | 0.586 µM
0.082 µM | 0.073 µM | 0.038 µM | O=C(Nc1ccc2[nH]ncc2n1)[C@H]1C[C@@H](F)CN1C(=O)C1(c2ccc(OCC(F)(F)F)c(F)c2)CC(F)(F)C1 [Example 87] | 0.237 µM | 0.3 µM
0.076 µM | 0.053 µM | 0.048 µM | COc1ccc(C2(C(=O)N3C[C@H](F)C[C@@H]3C(=O)Nc3ccc4[nH]ncc4n3)CC(C)(C)C2)cc1 [Example 57] | 0.31 µM | 0.473 µM
0.075 µM | 0.089 µM | 0.031 µM | [2H]C([2H])([2H])Oc1ccc(C2(C(=O)N3C[C@H](F)C[C@@H]3C(=O)Nc3ccc4[nH]ncc4n3)CCC(F)(F)CC2)cc1F [Example 91, (4R)-1-[(4,4-Difluoro-1-{3-fluoro-4-[(^2H3)methyloxy]phenyl}cyclohexyl)carbonyl]-4-fluoro-N-1H-pyrazolo[4,3-b]pyridin-5-yl-D-prolinamide] | 0.217 µM | 0.364 µM
0.08 µM | 0.053 µM | 0.037 µM | CCOc1ccc(C2(C(=O)N3C[C@H](F)C[C@@H]3C(=O)Nc3ccc4[nH]ncc4n3)CC(F)(F)C2)cc1F [Example 88] | 0.201 µM | 0.351 µM
0.084 µM | 0.126 µM | 0.04 µM | CS(=O)(=O)Nc1ccc(C2(C(=O)N3C[C@H](F)C[C@@H]3C(=O)Nc3ccc4[nH]ncc4n3)CCC(F)(F)CC2)cc1 [Example 102, (4R)-1-[(4,4-Difluoro-1-{4-[(methylsulfonyl)amino]phenyl}cyclohexyl)carbonyl]-4-fluoro-N-1H-pyrazolo[4,3-b]pyridin-5-yl-D-prolinamide] | 0.323 µM | 0.439 µM
